Measured values: patent US4045290A, “Diagnostic method and compounds for use therewith” (Princeton Biomedix Incorporated, priority 1976, dated 1977)
Structures can show the parent of a compound that is named as a salt.

Experiments:
alkaline phosphatase [1] = assay: Kinetic rate of Thymol Blue release at 600 nm from substrate with serum alkaline phosphatase; format: biochemical; details: for absorbance rate at 600 nm: 0.1 ml Validate A, 25° C.
Description: According to the test procedure of the subject invention, Thymol Blue Monophosphate is hydrolyzed by alkaline phosphatase to Thymol Blue in the presence of phosphorylatable diethanolamine buffer at pH 10.2. The color produced as a result thereof is proportional to enzyme present and the average change in absorbance per minute (ΔA/min) is determined at a wavelength of 600 nm.
Other amino alcohol buffers which can be phosphorylated and which can be used in this test are, for example, 2-ethylaminoethanol, 3-dimethylamino-1, 2-propanediol, 2-methylaminoethanol, those listed by Elias Amador, Clinical Chemistry, 18, 94 (1972) and the like. The amino alcohol buffer is present in an amount sufficient to raise the pH of the reaction mixture to about 10.2. The magnesium activator is used in an amount sufficient to activate the alkaline phosphatase enzyme in the sample to be tested. The concentration of magnesium ion in the substrate reagent is about 1.5 millimoles per liter. The concentration of Thymol Blue Monophosphate in the reagent is not critical but must be sufficient to permit a kinetic reaction to proceed over a period of time without the substrate being exhausted. The preferred concentration of this material is between 1 and 3 millimoles per liter. The serum sample to be tested is contacted with the substrate reagent at a given temperature which may be from about 22° to about 40° C. but preferably at 30° C. or 37° C. While the temperature affects the rate of reaction, the particular temperature used, within the limits of the stability of the sample, is not critical hereto. The average change in absorbance per minute (ΔA/min) at 600 nm is then determined in a spectrophotometer capable of reading absorbance at 600 nm and maintaining constant temperature in the cuvet compartment. By definition, one unit of alkaline phosphatase activity is the amount of enzyme that will hydrolyze one micromole of Thymol Blue Monophosphate to Thymol Blue in one minute at 30° C. The enzyme activity is calculated by the following formula: [formula] where: U/liter =units of enzyme activity per liter at 30° C.

[2] = Storage stability of substrate / reagent (absorbance at 600 nm, TLC); format: physicochemical
alkaline phosphatase [3] = target: T1, alkaline phosphatase (Homo sapiens, UniProt P05186); assay: Serum Alkaline Phosphatase End Point Assay; format: biochemical; details: 1 ml reagent + 0.1 ml serum sample, 10 minutes at 37° C., stopped with NaOH/Na2CO3
T1 construct: from tissue; host or cells: serum
T1 sequence (P05186 18-501 limits assumed): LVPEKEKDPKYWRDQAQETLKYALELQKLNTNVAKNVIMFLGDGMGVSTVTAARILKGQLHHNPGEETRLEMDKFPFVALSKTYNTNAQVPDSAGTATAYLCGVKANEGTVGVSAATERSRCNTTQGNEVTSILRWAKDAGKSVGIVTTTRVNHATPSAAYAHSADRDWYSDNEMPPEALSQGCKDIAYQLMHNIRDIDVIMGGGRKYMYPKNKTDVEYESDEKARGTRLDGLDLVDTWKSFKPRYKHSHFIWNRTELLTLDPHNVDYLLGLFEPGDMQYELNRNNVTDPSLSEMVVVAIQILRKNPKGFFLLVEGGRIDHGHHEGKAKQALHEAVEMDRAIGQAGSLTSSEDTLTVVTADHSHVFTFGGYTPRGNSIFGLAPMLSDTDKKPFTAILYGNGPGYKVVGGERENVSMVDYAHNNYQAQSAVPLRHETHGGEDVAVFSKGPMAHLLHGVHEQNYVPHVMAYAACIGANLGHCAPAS
Description: If so desired an end-point procedure may be employed for determination of serum alkaline phosphatase activity employing Thymol Blue Monophosphate as the substrate. In this instance, the test serum sample is added to the diethanolamine buffered Thymol Blue Monophosphate substrate solution and the reaction is terminated after 10 minutes time by addition of an alkaline reagent such as, for example, 0.1M NaOH and 0.1M Na2 CO3. The absorbance of the sample is read at 600 nm and the enzyme activity is determined from a standard curve prepared from a Thymol Blue standard. The standard curve is prepared by measuring absorbance of dilutions of a known standard and plotting the measured absorbance against the calculated enzyme activity in units per liter.
A substrate for measurement of alkaline phosphatase by the end-point method prepared identical to that of example XVI. One ml of the reagent was placed in a suitable 10 ml tube for measurement of the test specimen and one ml of the reagent was placed in a second tube for measurement of the reagent blank. […] The reagent blank solution was used to set the spectrophotometer at 0 absorption and the specimen tube was then measured and found to have an absorption of 0.329 at 600 nm. From a standard curve constructed from known concentrations of Thymol Blue an activity of alkaline phosphatase of 38 U/liter was determined.

acid phosphatase = assay: Acid Phosphatase - End Point Assay; format: biochemical; details: 1.2 mmol/liter substrate, 20 minutes 37° C.
Description: An end-point procedure may be employed for determination of acid phosphatase activity employing Thymol Blue Monophosphate as the substrate. In this instance, the test serum sample is added to a Thymol Blue Monophosphate solution buffered to a pH of about 5 and the reaction is terminated by addition of an alkaline reagent after 20 minutes reaction time. The absorbance of the sample is then read at 600 nm and the acid phosphatase enzyme activity is determined from a standard curve prepared from a Thymol Blue standard as described above.
A reagent was prepared containing 1.2 mmol/liter of Thymol Blue Monophosphate, 0.05 M Citrate buffer pH 5.0, and 0.1 % non inonic detergent, Tergitol NPX (Union Carbide Corporation).
One ml of this substrate reagent solution was placed in each of two test tubes which were warmed to 37° C. for 5 minutes. To one of the test tubes was added 0.2 ml of a serum sample containing an elevated level of acid phosphatase. The mixture was then permitted to stand at 37° C. for 20 minutes at which time 3.0 mls of alkali reagent (0.1 m Na2 CO3 + 0.1M NaOH) was added to stop the reaction. […]
The absorption of each solution was measured at 600 nm against distilled water. […] From standard curve, the acid phosphatase activity of the serum was calculated to be 6.5 U/liter.

[4] = Solubility and physical properties; format: physicochemical
[5] = substrate (not freeze-dried) in DEA buffer

SMILES: Cc1cc(O)c(C(C)C)cc1C1(c2cc(C(C)C)c(OP(=O)(O)O)cc2C)OS(=O)(=O)c2ccccc21 (stereo not drawn) [I, Thymol Blue Monophosphate, Sodium Salt Solution]
- rate of reaction at 600 nm (alkaline phosphatase [1]; 2 ml working reagent (DEA buffer pH 10.2) + 50 μl Validate A control serum, 30° C.): 0.0308 min⁻¹

SMILES: Cc1cc(O)c(C(C)C)cc1C1(c2cc(C(C)C)c(OP(=O)(O)O)cc2C)OS(=O)(=O)c2ccccc21 (stereo not drawn) [II, Thymol Blue Monophosphate (AMPD Salt)]
- performance as substrate for alkaline phosphatase (release of Thymol Blue) (alkaline phosphatase [1]; pH 10.2 diethanolamine buffer with magnesium chloride, sera containing alkaline phosphatase): performed as a substrate for alkaline phosphatase

SMILES: Cc1cc(O)c(C(C)C)cc1C1(c2cc(C(C)C)c(OP(=O)(O)O)cc2C)OS(=O)(=O)c2ccccc21 (stereo not drawn) [III, Phosphorylated Thymol Blue]
- absorbance rate (ΔA/min.) at 600 nm (alkaline phosphatase [1]; 2 mg solid in 2.9 ml diethanolamine buffer pH 10.2, 0.1 ml Validate A): 0.0180 min⁻¹
- absorbance rate (ΔA/min.) at 600 nm (alkaline phosphatase [1]; 5 mg sample in diethanolamine buffer pH 10.2, 0.1 ml Validate A): 0.028 min⁻¹

SMILES: Cc1cc(O)c(C(C)C)cc1C1(c2cc(C(C)C)c(OP(=O)(O)O)cc2C)OS(=O)(=O)c2ccccc21 (stereo not drawn) [IV, Thymol Blue Monophosphate in Diethanolamine Buffer]
- absorbance at 600 nm of buffered substrate, initial ([2]; 2.9 ml test volume, 1.0M DEA buffer pH 10.2, fresh): 0.131
- frozen buffered substrate after storage (absorbance) ([2]; frozen, 6 months): remained unchanged
- activity toward alkaline phosphatase after storage ([2]; refrigerated at 2° to 8° C. over 6 months): remained unchanged
- absorbance at 600 nm of buffered substrate after storage ([2]; refrigerated at 2° to 8° C. over 6 months, increase due to gradual hydrolysis): approximately 0.550
- rate at 600 nm (alkaline phosphatase [1]; 2.9 ml test volume in 1.0M DEA buffer pH 10.2, 0.1 ml Lederzyme Control Sera, 30° C.): 0.037 min⁻¹

SMILES: Cc1cc(O)c(C(C)C)cc1C1(c2cc(C(C)C)c(OP(=O)(O)O)cc2C)OS(=O)(=O)c2ccccc21 (stereo not drawn) [Thymol Blue Monophosphate]
- absorption at 600 nm of specimen tube against reagent blank (alkaline phosphatase [3]): 0.329
- change in absorbance (ΔA/min) at 600 nm (alkaline phosphatase [1]; 2 ml substrate 1.5 mmol/liter, DEA buffer pH 10.2, MgCl2, 0.05 ml serum to be tested, 30° C.): 0.022
- absorption at 600 nm of test serum sample (acid phosphatase; citrate buffer pH 5.0, 0.2 ml serum with elevated acid phosphatase, against distilled water): 0.364
- net increase in absorption over blank (acid phosphatase; citrate buffer pH 5.0, 0.2 ml serum): 0.253 absorption units

SMILES: Cc1cc(O)c(C(C)C)cc1C1(c2cc(C(C)C)c(OP(=O)(O)O)cc2C)OS(=O)(=O)c2ccccc21 (stereo not drawn) [VIII, Sodium Thymol Blue Monophosphate Solution]
- solubility in absolute ethanol ([4]; yellow orange solid): slightly soluble
- solubility in water ([4]; yellow orange solid): readily soluble
- rate at 600 nm (alkaline phosphatase [1]; 1 ml substrate solution + 1 ml 0.6 M DEA buffer pH 10.2, 0.1 ml Validate A, temperature not given): 0.0758 min⁻¹

SMILES: Cc1cc(O)c(C(C)C)cc1C1(c2cc(C(C)C)c(OP(=O)(O)O)cc2C)OS(=O)(=O)c2ccccc21 (stereo not drawn) [X, Thymol Blue Monophosphate Cyclohexylammonium Salt]
- hygroscopicity ([4]; orange solid product): hygroscopic
- stability of solid by TLC ([2]; after one month standing at room temperature): Thymol Blue was detected on TLC indicating decomposition
- absorbance rate at 600 nm (alkaline phosphatase [1]; [5]): 0.0427 min⁻¹

SMILES: Cc1cc(O)c(C(C)C)cc1C1(c2cc(C(C)C)c(OP(=O)(O)O)cc2C)OS(=O)(=O)c2ccccc21 (stereo not drawn) [XI, Thymol Blue Monophosphate Sodium Salt Solution]
- absorbance rate at 600 nm (alkaline phosphatase [1]; [5]): 0.0577 min⁻¹

SMILES: Cc1cc(O)c(C(C)C)cc1C1(c2cc(C(C)C)c(OP(=O)(O)O)cc2C)OS(=O)(=O)c2ccccc21 (stereo not drawn) [XII, Thymol Blue Monophosphate Ammonium Salt]
- absorbance rate at 600 nm (alkaline phosphatase [1]; substrate (not freeze-dried) in DEA buffer, Monophosphate Ammonium Salt): 0.0486 min⁻¹

SMILES: Cc1cc(O)c(C(C)C)cc1C1(c2cc(C(C)C)c(OP(=O)(O)O)cc2C)OS(=O)(=O)c2ccccc21 (stereo not drawn) [XIII, Thymol Blue Monophosphate, Tris (hydroxymethyl)aminomethane Salt]
- substrate activity with alkaline phosphatase (alkaline phosphatase [1]; aqueous solution of the salt, clear amber liquid): potent substrate activity
- absorbance rate at 600 nm (alkaline phosphatase [1]; freeze-dried reagent reconstituted): 0.0552 min⁻¹
- absorbance rate at 600 nm (alkaline phosphatase [1]; [5]): 0.0600 min⁻¹
